Measured values published in patent US12180193B2, “Accelerating fibrosarcoma protein degrading compounds and associated methods of use” (Arvinas Operations, Inc., priority 2020, dated 2024).

Experiments:
BRAF G466V = biological target: T1, BRAF G466V (Homo sapiens, UniProt P15056, G466V); assay: Cellular assay of target protein degradation, T-Rex 293 cells stably transfected with HA-BRAF G466V (HA immunofluorescence, high content imaging); assay type: cell-based; settings: T-Rex 293 HA-BRAF G466V; for DC50: half maximal degradation, read-out: BRaf G466V DC50; for Dmax: maximum degradation observed
T1 construct: expressed in transfected cells
Procedure, shortened: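 HA-BRAF G466V levels were read by HA immunofluorescence and high-content imaging after 24 h compound exposure (final 30 nM–3 pM, 0.1% DMSO, 37 °C). Expression was induced with 0.75 ng/mL doxycycline. Outputs: half-maximal degradation concentration (DC50) and maximal degradation (Dmax) relative to control.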

BRAF V600E = biological target: T2, BRAF V600E (Homo sapiens, UniProt P15056, V600E); assay: Cellular assay of target protein degradation, T-Rex 293 cells stably transfected with HA-BRAF_V600E (HA immunofluorescence, high content imaging); assay type: cell-based; settings: T-Rex 293 HA-BRAF V600E; for DC50: half maximal degradation, read-out: BRaf V600E DC50; for Dmax: maximum degradation observed
T2 construct: expressed in transfected cells
Procedure, shortened: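 HA immunofluorescence on fixed cells, imaged by high-content reader, measured loss of HA-BRAF V600E in stably transfected T-Rex 293 cells induced with 1 ng/mL doxycycline. Compounds were applied for 24 h at 37 °C (final 0.1 nM–1 μM, 0.1% DMSO); DC50 and Dmax (% of control) were reported.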

T2 sequence (P15056 whole entry V600E): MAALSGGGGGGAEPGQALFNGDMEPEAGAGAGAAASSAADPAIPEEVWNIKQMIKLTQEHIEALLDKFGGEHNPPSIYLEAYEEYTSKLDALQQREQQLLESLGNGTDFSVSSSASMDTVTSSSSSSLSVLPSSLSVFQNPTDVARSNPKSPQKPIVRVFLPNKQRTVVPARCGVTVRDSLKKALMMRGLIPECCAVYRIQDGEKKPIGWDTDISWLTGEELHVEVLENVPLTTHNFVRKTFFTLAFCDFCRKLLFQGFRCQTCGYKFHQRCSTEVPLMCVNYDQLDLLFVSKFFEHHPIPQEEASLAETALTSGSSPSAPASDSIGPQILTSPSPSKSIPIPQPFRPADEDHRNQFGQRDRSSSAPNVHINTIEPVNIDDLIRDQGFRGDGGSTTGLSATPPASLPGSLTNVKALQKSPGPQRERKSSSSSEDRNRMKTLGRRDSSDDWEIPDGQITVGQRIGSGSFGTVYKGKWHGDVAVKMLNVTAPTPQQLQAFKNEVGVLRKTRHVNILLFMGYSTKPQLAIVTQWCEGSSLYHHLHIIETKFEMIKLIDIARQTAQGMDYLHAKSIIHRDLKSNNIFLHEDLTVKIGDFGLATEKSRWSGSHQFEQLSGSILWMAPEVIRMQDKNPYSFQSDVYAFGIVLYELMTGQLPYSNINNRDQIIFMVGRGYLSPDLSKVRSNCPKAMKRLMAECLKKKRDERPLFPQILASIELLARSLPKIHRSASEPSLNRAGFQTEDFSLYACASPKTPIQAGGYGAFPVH
T1 sequence (P15056 whole entry G466V): as the sequence (P15056 whole entry V600E) above, with G466V, E600V counted along it

SMILES	DC50 (BRAF G466V) [nM]	Dmax (BRAF G466V) [%]	DC50 (BRAF V600E) [nM]	Dmax (BRAF V600E) [%]
O=C1CCC(N2Cc3cc(CCCCCN4CCC(c5ccc(-c6cnc7[nH]cc(C(=O)c8c(F)ccc(NS(=O)(=O)N9CC[C@@H](F)C9)c8F)c7c6)cc5)CC4)ccc3C2=O)C(=O)N1 (stereo partly drawn) [Compound 65, (3R)-N-(3-{5-[4-(1-{5-[2-(2,6-dioxopiperidin-3-yl)-1-oxo-2,3-dihydro-1H-isoindol-5-yl]pentyl}piperidin-4-yl)phenyl]-1H-pyrrolo[2,3-b]pyridine-3-carbonyl}-2,4-difluorophenyl)-3-fluoropyrrolidine-1-sulfonamide]	< 1	35 to 70	5 to 50	35 to 70
O=C1CCC(N2Cc3cc(C(O)CCN4CC5(C4)CN(c4ccc(-c6cnc7[nH]cc(C(=O)c8c(F)ccc(NS(=O)(=O)N9CC[C@@H](F)C9)c8F)c7c6)cc4)C5)ccc3C2=O)C(=O)N1 (stereo partly drawn) [Compound 61, (3R)-N-(3-{5-[4-(6-{3-[2-(2,6-dioxopiperidin-3-yl)-1-oxo-2,3-dihydro-1H-isoindol-5-yl]-3-hydroxypropyl}-2,6-diazaspiro[3.3]heptan-2-yl)phenyl]-1H-pyrrolo[2,3-b]pyridine-3-carbonyl}-2,4-difluorophenyl)-3-fluoropyrrolidine-1-sulfonamide]	1 to 10	35 to 70	5 to 50	35 to 70
O=C1CCC(N2Cc3cc(C4CCN(CC5CCN(c6c(F)cc(-c7cnc8[nH]cc(C(=O)c9c(F)ccc(NS(=O)(=O)N%10CC[C@@H](F)C%10)c9F)c8c7)cc6F)CC5)CC4)ccc3C2=O)C(=O)N1 (stereo partly drawn) [Compound 94, (3R)-N-[3-(5-{4-[4-({4-[2-(2,6-dioxopiperidin-3-yl)-1-oxo-2,3-dihydro-1H-isoindol-5-yl]piperidin-1-yl}methyl)piperidin-1-yl]-3,5-difluorophenyl}-1H-pyrrolo[2,3-b]pyridine-3-carbonyl)-2,4-difluorophenyl]-3-fluoropyrrolidine-1-sulfonamide]	1 to 10	> 70	5 to 50	35 to 70
CC(C)CS(=O)(=O)Nc1ccc(F)c(C(=O)c2c[nH]c3ncc(-c4ccc(N5CCC(CN6CCC(c7ccc8c(c7)CN([C@H]7CCC(=O)NC7=O)C8=O)CC6)CC5)cc4)cc23)c1F [Compound 204, N-{3-[5-(4-{4-[(4-{2-[(3S)-2,6-dioxopiperidin-3-yl]-1-oxo-2,3-dihydro-1H-isoindol-5-yl}piperidin-1-yl)methyl]piperidin-1-yl}phenyl)-1H-pyrrolo[2,3-b]pyridine-3-carbonyl]-2,4-difluorophenyl}-2-methylpropane-1-sulfonamide]	< 1	35 to 70	< 5	35 to 70
O=C1CC[C@@H](N2Cc3cc(N4CC5(CN(CC6CCN(c7ccc(-c8cnc9[nH]cc(C(=O)c%10c(F)ccc(NS(=O)(=O)N%11CC[C@@H](F)C%11)c%10F)c9c8)cc7)CC6)C5)C4)ccc3C2=O)C(=O)N1 [Compound 222, (3R)-N-{3-[5-(4-{4-[(6-{2-[(3R)-2,6-dioxopiperidin-3-yl]-1-oxo-2,3-dihydro-1H-isoindol-5-yl}-2,6-diazaspiro[3.3]heptan-2-yl)methyl]piperidin-1-yl}phenyl)-1H-pyrrolo[2,3-b]pyridine-3-carbonyl]-2,4-difluorophenyl}-3-fluoropyrrolidine-1-sulfonamide]	1 to 10	> 70	5 to 50	35 to 70
O=C1CC[C@H](N2Cc3cc(C[C@H](O)CN4CC5(C4)CN(c4ccc(-c6cnc7[nH]cc(C(=O)c8c(F)ccc(NS(=O)(=O)N9CC[C@@H](F)C9)c8F)c7c6)cc4)C5)ccc3C2=O)C(=O)N1 [Compound 170, (3R)-N-{3-[5-(4-{6-[(2S)-3-{2-[(3S)-2,6-dioxopiperidin-3-yl]-1-oxo-2,3-dihydro-1H-isoindol-5-yl}-2-hydroxypropyl]-2,6-diazaspiro[3.3]heptan-2-yl}phenyl)-1H-pyrrolo[2,3-b]pyridine-3-carbonyl]-2,4-difluorophenyl}-3-fluoropyrrolidine-1-sulfonamide]	1 to 10	> 70	50 to 500	35 to 70
COc1cc(N2CC3(CN(CC4CCN(c5ccc(-c6cnc7[nH]cc(C(=O)c8c(F)ccc(NS(=O)(=O)N9CC[C@@H](F)C9)c8F)c7c6)cc5)CC4)C3)C2)ccc1C(=O)N[C@@H]1CCC(=O)NC1=O [Compound 344, 4-(6-{[1-(4-{3-[2,6-difluoro-3-({[(3R)-3-fluoropyrroldiin-1-yl]sulfonyl}amino)benzoyl]-1H-pyrrolo[2,3-b]pyridin-5-yl}phenyl)piperidin-4-yl]methyl}-2,6-diazaspiro[3.3]heptan-2-yl)-N-[(3R)-2,6-dioxopiperidin-3-yl]-2-methoxybenzamide]	10 to 30	> 70	50 to 500	< 35
O=C1CCC(N2Cc3cc(N4CC(CN5CCN(Cc6ccc(-c7cnc8[nH]cc(C(=O)c9c(F)ccc(NS(=O)(=O)N%10CC[C@@H](F)C%10)c9F)c8c7)cc6)CC5)C4)ccc3C2=O)C(=O)N1 (stereo partly drawn) [Compound 192, (3R)-N-{3-[5-(4-{[4-({1-[2-(2,6-dioxopiperidin-3-yl)-1-oxo-2,3-dihydro-1H-isoindol-5-yl]azetidin-3-yl}methyl)piperazin-1-yl]methyl}phenyl)-1H-pyrrolo[2,3-b]pyridine-3-carbonyl]-2,4-difluorophenyl}-3-fluoropyrrolidine-1-sulfonamide]	1 to 10	> 70	5 to 50	35 to 70
O=C1CCC(N2Cc3cc(CCCN4CC5(C4)CN(c4ncc(-c6cnc7[nH]cc(C(=O)c8c(F)ccc(NS(=O)(=O)N9CC[C@@H](F)C9)c8F)c7c6)cn4)C5)ccc3C2=O)C(=O)N1 (stereo partly drawn) [Compound 147, (3R)-N-(3-{5-[2-(6-{3-[2-(2,6-dioxopiperidin-3-yl)-1-oxo-2,3-dihydro-1H-isoindol-5-yl]propyl}-2,6-diazaspiro[3.3]heptan-2-yl)pyrimidin-5-yl]-1H-pyrrolo[2,3-b]pyridine-3-carbonyl}-2,4-difluorophenyl)-3-fluoropyrrolidine-1-sulfonamide]	1 to 10	35 to 70	50 to 500	35 to 70
O=C1CCC(N2Cc3cc(N4CC5(CN(CCOc6ccc(-c7cnc8[nH]cc(C(=O)c9c(F)ccc(NS(=O)(=O)N%10CC[C@@H](F)C%10)c9F)c8c7)cn6)C5)C4)ccc3C2=O)C(=O)N1 (stereo partly drawn) [Compound 158, (3R)-N-(3-{5-[6-(2-{6-[2-(2,6-dioxopiperidin-3-yl)-1-oxo-2,3-dihydro-1H-isoindol-5-yl]-2,6-diazaspiro[3.3]heptan-2-yl}ethoxy)pyridin-3-yl]-1H-pyrrolo[2,3-b]pyridine-3-carbonyl}-2,4-difluorophenyl)-3-fluoropyrrolidine-1-sulfonamide]	1 to 10	> 70	5 to 50	35 to 70

The remaining lines, values ahead:

DC50 (BRAF G466V) [nM]	Dmax (BRAF G466V) [%]	DC50 (BRAF V600E) [nM]	Dmax (BRAF V600E) [%]	SMILES
1 to 10	> 70	5 to 50	35 to 70	C[C@H]1[C@H](F)CCN1S(=O)(=O)Nc1ccc(F)c(C(=O)c2c[nH]c3ncc(-c4ccc(N5CCC(CN6CCC(c7ccc8c(c7)CN(C7CCC(=O)NC7=O)C8=O)CC6)CC5)cc4)cc23)c1F (stereo partly drawn) [Compound 271, (2S,3R)-N-[3-(5-{4-[4-({4-[2-(2,6-dioxopiperidin-3-yl)-1-oxo-2,3-dihydro-1H-isoindol-5-yl]piperidin-1-yl}methyl)piperidin-1-yl]phenyl}-1H-pyrrolo[2,3-b]pyridine-3-carbonyl)-2,4-difluorophenyl]-3-fluoro-2-methylpyrrolidine-1-sulfonamide]
1 to 10	< 35	50 to 500	< 35	O=C1CC[C@@H](NC(=O)c2ccc(C3CCN(CC4CCN(c5ccc(-c6cnc7[nH]cc(C(=O)c8c(F)ccc(NS(=O)(=O)N9CC[C@@H](F)C9)c8F)c7c6)cc5)CC4)CC3)cc2F)C(=O)N1 [Compound 48, 4-(1-{[1-(4-{3-[2,6-difluoro-3-({[(3R)-3-fluoropyrrolidin-1-yl]sulfonyl}amino)benzoyl]-1H-pyrrolo[2,3-b]pyridin-5-yl}phenyl)piperidin-4-yl]methyl}piperidin-4-yl)-N-[(3R)-2,6-dioxopiperidin-3-yl]-2-fluorobenzamide]
1 to 10	> 70	5 to 50	35 to 70	COc1cc(N2CCC(CN3CCN(c4ccc(-c5cnc6[nH]cc(C(=O)c7c(F)ccc(NS(=O)(=O)N8CC[C@@H](F)C8)c7F)c6c5)cc4)CC3)CC2)ccc1C(=O)NC1CCC(=O)NC1=O (stereo partly drawn) [Compound 358, 4-(4-{[4-(4-{3-[2,6-difluoro-3-({[(3R)-3-fluoropyrrolidin-1-yl]sulfonyl}amino)benzoyl]-1H-pyrrolo[2,3-b]pyridin-5-yl}phenyl)piperazin-1-yl]methyl}piperidin-1-yl)-N-(2,6-dioxopiperidin-3-yl)-2-methoxybenzamide]
1 to 10	> 70	5 to 50	35 to 70	O=C1CC[C@@H](N2Cc3cc(N4CCC(CN5CCN(c6ccc(-c7cnc8[nH]cc(C(=O)c9c(F)ccc(NS(=O)(=O)N%10CC[C@@H](F)C%10)c9F)c8c7)cc6)CC5)CC4)ccc3C2=O)C(=O)N1 [Compound 224, (3R)-N-{3-[5-(4-{4-[(1-{2-[(3R)-2,6-dioxopiperidin-3-yl]-1-oxo-2,3-dihydro-1H-isoindol-5-yl}piperidin-4-yl)methyl]piperazin-1-yl}phenyl)-1H-pyrrolo [2,3-b]pyridine-3-carbonyl]-2,4-difluorophenyl}-3-fluoropyrrolidine-1-sulfonamide]
